Source: the OPERA property sets (Mansouri et al. 2018)

Structure (SMILES) | log10 Koc (L/kg) | melting point | ready biodegradability | boiling point | log10 vapour pressure (mmHg) | log10 Henry constant (atm·m³/mol)
NC(=O)c1c(Cl)cccc1Cl | 0.53 | 198 °C | not readily biodegradable |  |  | 
CCc1cc(C(N)=S)ccn1 |  | 163 °C |  |  |  | 
CC(C)CCC[C@@H](C)[C@H]1CC[C@H]2[C@@H]3CC=C4C=CCC[C@]4(C)[C@H]3CC[C@]12C |  | 80 °C |  |  |  | 
CC(C)CCCC(=O)O |  |  |  | 216 °C |  | 
CN1CCC[C@H]1c1cccnc1 | 2.01 | -79 °C |  | 247 °C | -1.42 | 
O=NN(CCCl)C(=O)NCCCl |  | 31 °C |  |  |  | 
Nc1ccc(C2(c3ccc(N)cc3)OC(=O)c3ccccc32)cc1 |  | 203 °C |  |  |  | 
[Br-].[Br-].c1cc[n+]2c(c1)-c1cccc[n+]1CC2 |  | 337 °C |  |  |  | 
CC(C)(C)c1cc(Cc2cc(C(C)(C)C)c(O)c(C(C)(C)C)c2)cc(C(C)(C)C)c1O |  |  | not readily biodegradable |  |  | 
COc1cc([C@@H]2c3cc4c(cc3C(O[C@@H]3O[C@@H]5CO[C@@H](C)O[C@H]5[C@H](O)[C@H]3O)C3COC(=O)[C@@H]32)OCO4)cc(OC)c1O (some centres not stated) |  | 244 °C |  |  |  | 
COS(=O)(=O)Cl |  | -70 °C |  | 134 °C |  | 
CCCS(=O)(=O)CCC |  | 29.5 °C |  | 270 °C | -2.39 | 
FC(F)(F)C(F)(F)C(Cl)Cl |  | -94 °C |  | 51.1 °C | 2.38 | -0.299
CCC(Br)CBr (configuration not stated) |  | -65.4 °C |  | 166 °C | 0.491 | 
Cc1cc2ccccc2o1 |  |  |  | 198 °C | -0.312 | 
NC1CCCCCCC1 |  | -48 °C |  | 190 °C |  | 
Oc1cccc(Br)c1 |  | 33 °C | not readily biodegradable | 236 °C |  | 
O=C(O)c1cccc(F)c1F |  | 164 °C |  |  |  | 
CCC(C)Br (configuration not stated) |  | -112 °C |  | 91.2 °C | 1.76 | 
Cc1ccc(C)c(Cl)c1 |  | 1.6 °C | not readily biodegradable | 187 °C |  | 
Nc1ccc2nccnc2c1 |  | 159 °C |  |  |  | 

Structure (SMILES) | log10 Koc (L/kg) | melting point | ready biodegradability | boiling point | log10 vapour pressure (mmHg) | log10 Henry constant (atm·m³/mol)
CCCCCCC=CCC(=O)O |  | 18 °C |  |  |  | 
COc1ccc(C#N)cc1 |  | 61.5 °C |  | 256 °C |  | 
N[C@@H](Cc1cc(I)c(Oc2cc(I)c(O)c(I)c2)c(I)c1)C(=O)O |  | 236 °C |  |  |  | 
O=C(O)CCCCCCC[C@H](O)[C@H](O)CCCCCCO |  | 100 °C |  |  |  | 
O=[N+]([O-])c1ccc(O)c(F)c1 |  | 121 °C |  |  |  | 
C[Si](C)(C)O[Si](C)(C)O[Si](C)(C)O[Si](C)(C)O[Si](C)(C)O[Si](C)(C)C |  | -59 °C |  | 246 °C | -1.53 | 
CCOC(=O)c1ccccc1C(=O)c1ccccc1 |  | 59.5 °C |  |  |  | 
CC1Cc2ccccc2CC1C (configuration not stated) |  | -5 °C |  |  |  | 
C1=CCOC1 |  |  |  | 66.5 °C | 2.2 | 
NC=S |  | 26.5 °C |  |  |  | 
C/C=C/C=C/C |  | -79 °C |  | 80 °C |  | 
Cc1cc(Br)ccc1Br |  | 5.6 °C |  | 236 °C |  | 
Oc1ccccc1-c1ccccc1O |  | 109 °C |  | 320 °C |  | 
CCc1ccccc1O |  | 18 °C |  | 204 °C | -0.815 | 
Cc1cc(C)cc(OP(=O)(Oc2cc(C)cc(C)c2)Oc2cc(C)cc(C)c2)c1 |  |  | not readily biodegradable |  |  | 
OC(c1ccc(Cl)cc1)c1cc2ccccc2o1 (configuration not stated) |  | 48.5 °C |  |  |  | 
CCSC(C)C |  | -122 °C |  | 108 °C |  | 
CCCCCCCCOC(=O)CCCCCC |  | -22.5 °C |  | 290 °C |  | 
O=C(Cl)C(=O)Cl |  | -16 °C |  | 63.5 °C |  | 
CC(C)CCC(O)C(C)C (configuration not stated) |  |  |  | 175 °C |  | 
CCN(CC)CCCN |  |  |  | 168 °C |  | 

Structure (SMILES) | log10 Koc (L/kg) | melting point | ready biodegradability | boiling point | log10 vapour pressure (mmHg) | log10 Henry constant (atm·m³/mol)
COC(=O)C(C)O (configuration not stated) |  | -66 °C |  | 145 °C |  | 
Nc1ccc(Nc2ccccc2)c2c1C(=O)c1ccccc1C2=O |  | 192 °C |  |  |  | 
CC[C@H]1C[N@@]2CC[C@H]1C[C@@H]2[C@@H](O)c1ccnc2ccccc12 |  | 268 °C |  |  |  | 
Cc1ccc(C(C)(C)C)cc1 |  | -52 °C | readily biodegradable | 190 °C |  | 
Clc1cccc2c1Oc1c(Cl)c(Cl)c(Cl)c(Cl)c1O2 |  | 220 °C |  |  | -9.25 | 
CC1CCC(=O)CC1 |  | -40.6 °C |  | 170 °C | 0.176 | 
O=C(O)C(F)Cl (configuration not stated) |  |  |  | 162 °C |  | 
C=CCC[C@@H](C)CC |  |  |  | 113 °C |  | 
CNC(=O)NC |  | 108 °C | not readily biodegradable | 269 °C |  | 
CCCCCCCCCCCC(=O)N(CCO)CCO |  |  | readily biodegradable |  |  | 
CCC(CC(C)C)C(C)C (configuration not stated) |  |  |  | 154 °C |  | 
COc1ccc(Nc2ccc(OC)cc2)cc1 |  |  | not readily biodegradable |  |  | 
Cc1ccc(C)c(C=O)c1 |  |  |  | 220 °C |  | 
CCCCCCCCCCCCCC(=O)OC(C)C |  | 3 °C |  |  | -4.03 | 
CCCCCOc1ccccc1 |  |  |  | 200 °C |  | 
CC(=O)c1cc(Cl)ccc1Cl |  | 12 °C |  |  |  | 
C=C(C)Br |  | -126 °C |  | 48.4 °C |  | 
CN(C)C(=O)Oc1cccc([N+](C)(C)C)c1.COS(=O)(=O)[O-] |  | 143 °C |  |  |  | 
NC(=O)Nc1ccccc1 | 1.35 | 147 °C | not readily biodegradable | 238 °C |  | 
